Experimental data as given in patent publication US10100048B2, “Heterocyclic compounds and their use as glycogen synthase kinase-3 inhibitors” (AbbVie Deutschland GmbH & Co. KG, priority 2010, dated 2018).
Counter-ions that a name gives are not always drawn.

Molecular target: human Glycogen Synthase Kinase-3 beta (hGSK-3β) (Homo sapiens (Human), UniProt P49841)
Experiment: Biochemical hGSK-3Beta Assay (33P-ATP phosphorylation of biotinylated peptide substrate, Flash-plate)
Details: 0.0125 U hGSK-3β, 10 μM ATP, 1 μM substrate, 30 minutes at room temperature; read-out: GSK-3β IC50
Description: Methods—Biochemical hGSK-3Beta Assay
Compounds were tested for their ability to inhibit human Glycogen Synthase Kinase-3 beta (hGSK-3β) to phosphorylate biotin-[…](pS)EDEEE. Compounds were incubated with 0.5 μCi 33P-ATP, 10 μM ATP, 0.0125 U hGSK-3β (Upstate cell signaling solutions) and 1 μM substrate (biotin-[…](pS)EDEEE) in 50 mM HEPES, 10 mM MgCl2, […], 1 mM DTT, 0.0075% Triton, 2% DMSO (total volume 50 μL) for 30 minutes at room temperature. The incubation was stopped by addition of an equal volume of 100 mM EDTA, 4M NaCl. 80 μL of this mixture was added to streptavidin-coated Flash-plates (PerkinElmer). Following a wash step, 33P incorporation was quantified on a MicroBeta microplate liquid scintillation counter (Perkin Elmer). IC50s were determined by fitting a sigmoidal dose-response curve to the counts obtained at the different concentrations in GraphPad Prism.

Sequence of human Glycogen Synthase Kinase-3 beta (hGSK-3β) (P49841 whole entry): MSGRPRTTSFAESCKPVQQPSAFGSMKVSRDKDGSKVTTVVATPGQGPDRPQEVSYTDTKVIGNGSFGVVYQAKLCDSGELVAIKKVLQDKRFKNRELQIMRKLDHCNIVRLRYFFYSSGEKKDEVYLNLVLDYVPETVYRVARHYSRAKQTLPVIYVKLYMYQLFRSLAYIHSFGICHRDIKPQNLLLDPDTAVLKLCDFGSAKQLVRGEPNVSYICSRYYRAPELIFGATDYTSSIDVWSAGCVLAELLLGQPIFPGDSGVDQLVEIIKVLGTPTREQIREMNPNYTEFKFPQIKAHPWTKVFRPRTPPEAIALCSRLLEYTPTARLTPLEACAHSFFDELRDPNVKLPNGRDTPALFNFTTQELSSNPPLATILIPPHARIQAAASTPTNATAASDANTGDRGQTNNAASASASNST

Compound | IC50 [nM]
N#Cc1ccc2c(c1)C(c1ccc3c(n1)CCCC3O)C(=O)N2 (centres unmarked) [Example 1, 3-(5-Hydroxy-5,6,7,8-tetrahydroquinolin-2-yl)-2-oxoindoline-5-carbonitrile] | < 100
N#Cc1ccc2c(c1)C(c1ccc3c(n1)CCNC3)C(=O)N2 (centres unmarked) [Example 2, 2-Oxo-3-(5,6,7,8-tetrahydro-1,6-naphthyridin-2-yl)indoline-5-carbonitrile] | < 100
CC(C)(C)OC(=O)N1CCc2nc(C3C(=O)Nc4ccc(C#N)cc43)ccc2C1 (centres unmarked) [Example 2.2, tert-Butyl 2-(5-cyano-2-oxoindolin-3-yl)-7,8-dihydro-1,6-naphthyridine-6(5H)-carboxylate] | < 100
N#Cc1ccc2c(c1)C(c1ccc3c(n1)CNC3)C(=O)N2 (centres unmarked) [Example 5, 3-(6,7-Dihydro-5H-pyrrolo[3,4-b]pyridin-2-yl)-2-oxoindoline-5-carbonitrile hydrochloride] | < 100
COC1CCCc2nc(C3C(=O)Nc4ccc(C#N)cc43)ccc21 (centres unmarked) [Example 6, 3-(5-Methoxy-5,6,7,8-tetrahydroquinolin-2-yl)-2-oxoindoline-5-carbonitrile] | < 100
